# Marks after values point to notes of the source that are not given here.
# Columns and labels:
# [1] = test system: experimental model of irritable bowel syndrome (IBS) in rats induced by deoxycholic acid (DCA); assay: DCA-induced IBS in rats: referred pain with Von Frey filaments (AUC); format: in vivo, rat; conditions: for referred pain (in words): Von Frey filaments; for AUC: oral daily, mean ± SEM
# Method: (§1) Male Sprague Dawley rats (240-320 g) were administered DCA once daily on 3 consecutive days, and then divided into the different experimental groups (n=8): three received orally and daily CPM (40 and 100 mg/kg) or Gabapentin (70 mg/kg); a non IBS and an untreated control IBS group were also included. One and two weeks after, abdominal withdrawal reflex to colorectal distension (CRD) was semi quantitatively scored. Also the referred pain was evaluated with Von Frey filaments. After two weeks of treatment, all rats were sacrificed and the expression of different markers IL-1β and COX-2 evaluated in the colonic tissue by qPCR.
# [2] = test system: IL-1β; assay: DCA-induced IBS in rats: colonic IL-1β expression by qPCR; format: in vivo, rat; conditions: colonic tissue, two weeks oral daily, mean ± SEM
# Method: as §1
# [3] = test system: COX-2; assay: DCA-induced IBS in rats: colonic COX-2 expression by qPCR; format: in vivo, rat; conditions: colonic tissue, two weeks oral daily, mean ± SEM
# Method: as §1
# [4] = test system: experimental model of irritable bowel syndrome (IBS) in rats induced by deoxycholic acid (DCA); assay: DCA-induced IBS in rats: abdominal withdrawal reflex to colorectal distension (CRD); format: in vivo, rat; conditions: oral daily, mean ± SEM
# Method: as §1
# [5] = test system: myeloperoxidase (MPO); assay: TNBS rat colitis: colonic myeloperoxidase (MPO) activity; format: in vivo; conditions: colonic tissue, oral daily 7 days, mean ± SEM
# Method: (§2) Female Wistar rats (180-200 g) were randomly assigned to nine groups (n=10). Three groups received treatment with CaPyr (20, 40 and 100 mg/kg); other three received treatment with ethyl pyruvate (20, 40 and 100 mg/kg); and the remaining was treated with sulphasalazine (30 mg/kg). All compounds were dissolved in 1 ml of carboxymethylcellulose (0.2%) in water solution, and administered daily by oral gavage. An untreated TNBS control group and a non-colitic group were included for reference, which received the vehicle used to administer the test compounds. Colonic inflammation was induced in control and treated groups as generally described (see Galvez et al. 2014). Briefly, rats were fasted overnight, anesthetized with halothane and given TNBS dissolved in 0.25 ml of 50% ethanol (v/v) by means of a Teflon cannula inserted 8 cm through the anus. During and after TNBS administration, the rats were kept in a head-down position until they recovered from anaesthesia, and then returned to their cages. Rats from the non-colitic group were administered intracolonically 0.25 ml of phosphate buffered saline instead of TNBS. The treatments were given from the day of the colitis induction until the sacrifice of the rats with an overdose of halothane, seven days later. Animal body weights, occurrence of diarrhoea, and water and food intake were recorded daily throughout all the experiments. Once the animals were sacrificed, the colon was removed aseptically and placed on an ice-cold plate, longitudinally opened and cleaned from their luminal contents with cold saline. Afterwards, it was weighed and its length measured under a constant load (2 g). Each colon was scored for macroscopically visible damage on a 0-10 scale by two observers unaware of the experiment, according to the criteria described before (see Galvez et al. 2014). Colon samples (0.5 cm^2) containing all the layers were taken from a region of the inflamed colon corresponding to the adjacent segment to the gross macroscopic damage and were fixed in 4% buffered formaldehyde for the histological studies. Equivalent colonic segments were also obtained from the non-colitic group. The colon was subsequently minced, aliquoted and kept frozen at −80° C. until biochemical determinations and RNA extraction was performed.
# (§3) Myeloperoxidase (MPO) activity was measured according to the technique described previously (Krawiszet al., 1984); the results were expressed as MPO units per gram of wet tissue; one unit of MPO activity was defined as that degrading 1 μmol hydrogen peroxide/min at 25° C. Total glutathione (GSH) content was quantified with the recycling assay described by Anderson (1985), and the results were expressed as nmol/g wet tissue. In order to evaluate tissue IL-1β levels, the colonic samples were homogenized in phosphate buffered saline supplemented with 0.1% sodium dodecyl sulfate (SDS), 0.1% sodium deoxycholate, 1% Triton X-100 and protease and phosphatase inhibitors (aprotinin, leupeptin and phenylmethylsulfonyl fluoride). The cytokine was quantified by enzyme-linked immunoabsorbent assay (R&D Systems Inc., Minneapolis, Minn., USA) and the results were expressed as pg/g wet tissue.
# [6] = test system: TNBS experimental rat colitis; assay: TNBS rat colitis: microscopic (histological) damage score; format: in vivo; conditions: oral daily 7 days, mean ± SEM
# Method: as §2
# Cross-sections were selected and embedded in paraffin. Full-thickness sections of 5 μm were obtained at different levels and stained with haematoxylin and eosin. The histological damage was evaluated by a pathologist observer, who was blinded to the experimental groups, according to the criteria previously described by Galvez.
# [7] = test system: iNOS; assay: TNBS rat colitis: colonic iNOS mRNA by real-time PCR; format: in vivo; conditions: colon, oral daily 7 days, mean ± SEM
# Method: as §2
# (§4) Analysis of gene expression in colonic samples by RT-qPCR Total RNA from colonic samples was isolated using Trizol® (Thermo Fisher Scientific Inc., Waltham, Mass. USA) following the manufacturer's protocol. All RNA samples were quantified with the Thermo Scientific NanoDrop™ 2000 Spectrophotometer (Thermo Fisher Scientific Inc., Waltham, Mass. USA) and […] of RNA were reverse transcribed using oligo(dT) primers (Promega, Southampton, UK).
# (§5) Real time quantitative PCR amplification and detection was performed on optical-grade 48 well plates in an Eco™ Real-Time PCR System (Illumina, CA, USA) with 20 ng of cDNA, the KAPA SYBR® FAST qPCR Master Mix (Illumina, CA, USA) and specific primers at their annealing temperature (Ta). To normalize mRNA expression, the expression of the housekeeping gene, glyceraldehyde-3-phosphate dehydrogenase (GAPDH) was measured. The mRNA relative quantitation was calculated using the ΔΔCt method.
# [8] = test system: IL-12; assay: TNBS rat colitis: colonic IL-12 mRNA by real-time PCR; format: in vivo; conditions: colon, oral daily 7 days, mean ± SEM
# Method: as §2, §4, §5
# [9] = test system: ICAM-1; assay: TNBS rat colitis: colonic ICAM-1 mRNA by real-time PCR; format: in vivo; conditions: colon, oral daily 7 days, mean ± SEM
# Method: as §2, §4, §5
# [10] = test system: TNBS experimental rat colitis; assay: TNBS rat colitis: colonic macroscopic damage score and weight/length ratio; format: in vivo; conditions: for Damage Score (0-10) / Weight/length: TNBS rat colitis, oral daily 7 days, mean ± SEM; for Weight/length: colon
# Method: as §2
# [11] = test system: TFF-3; assay: TNBS rat colitis: colonic TFF-3 mRNA by real-time PCR; format: in vivo; conditions: colon, oral daily 7 days, mean ± SEM
# Method: as §2, §4, §5
# [12] = test system: MUC-2; assay: TNBS rat colitis: colonic MUC-2 mRNA by real-time PCR; format: in vivo; conditions: colon, oral daily 7 days, mean ± SEM
# Method: as §2, §4, §5
# [13] = test system: IL-23; assay: TNBS rat colitis: colonic IL-23 mRNA by real-time PCR; format: in vivo; conditions: colon, oral daily 7 days, mean ± SEM
# Method: as §2, §4, §5
# [14] = test system: IL-6; assay: TNBS rat colitis: colonic IL-6 mRNA by real-time PCR; format: in vivo; conditions: colon, oral daily 7 days, mean ± SEM
# Method: as §2, §4, §5
# [15] = test system: MCP-1; assay: TNBS rat colitis: colonic MCP-1 mRNA by real-time PCR; format: in vivo; conditions: colon, oral daily 7 days, mean ± SEM
# Method: as §2, §4, §5
# [16] = test system: CINC-1; assay: TNBS rat colitis: colonic CINC-1 mRNA by real-time PCR; format: in vivo; conditions: colon, oral daily 7 days, mean ± SEM
# Method: as §2, §4, §5
# [17] = test system: glutathione (GSH); assay: TNBS rat colitis: colonic total glutathione (GSH) content; format: in vivo; conditions: colonic tissue, oral daily 7 days, mean ± SEM
# Method: as §2, §3
# [18] = test system: IL-1β; assay: TNBS rat colitis: colonic IL-1β mRNA by real-time PCR; format: in vivo; conditions: colon, oral daily 7 days, mean ± SEM
# Method: as §2, §4, §5
# [19] = test system: IL-17; assay: TNBS rat colitis: colonic IL-17 mRNA by real-time PCR; format: in vivo; conditions: colon, oral daily 7 days, mean ± SEM
# Method: as §2, §4, §5
# [20] = test system: IL-1β; assay: TNBS rat colitis: colonic IL-1β by ELISA; format: in vivo; conditions: colonic tissue, oral daily 7 days, mean ± SEM
# Method: as §2, §3
molecule,measurement,setting,value
NCC1(CC(=O)O)CCCCC1 [Gabapentin],referred pain (in words),[1],attenuated
same,AUC,[1]; 30 mg/kg (table),27.30 ± 6.83^a arbitrary units
same,qPCR IL-1β,[2]; 30 mg/kg (table),8.28 ± 1.38^c fold increase
same,qPCR COX-2,[3]; 30 mg/kg (table),1.74 ± 0.36^c fold increase
same,CRD,[4]; 30 mg/kg (table),0.25 ± 0.1^a units
calcium pyruvate monohydrate [CPM],referred pain (in words),[1],attenuated
same,AUC,[1]; 40 mg/kg,104.65 ± 20.48^a arbitrary units
same,AUC,[1]; 100 mg/kg,63.70 ± 22.75^a arbitrary units
same,qPCR IL-1β,[2]; 40 mg/kg,7.82 ± 2.07^c fold increase
same,qPCR IL-1β,[2]; 100 mg/kg,5.52 ± 1.15^c fold increase
same,qPCR COX-2,[3]; 40 mg/kg,2.47 ± 0.58^c fold increase
same,qPCR COX-2,[3]; 100 mg/kg,1.60 ± 0.36^c fold increase
same,CRD,[4]; 40 mg/kg,1.30 ± 0.14^c units
same,CRD,[4]; 100 mg/kg,"0.70 ± 0.14^a,c units"
"CCOC(=O)C(C)=O [EtPyr, ethyl pyruvate]",MPO,[5]; 20 mg/kg,58.1 ± 11.9 mU/g tissue
same,MPO,[5]; 40 mg/kg,61.5 ± 9.8 mU/g tissue
same,MPO,[5]; 100 mg/kg,54.7 ± 10.8 mU/g tissue
same,Microscopic Damage Score (0-59),[6]; 20 mg/kg,25 ± 3
same,Microscopic Damage Score (0-59),[6]; 40 mg/kg,17 ± 3
same,Microscopic Damage Score (0-59),[6]; 100 mg/kg,23 ± 3
same,iNOS mRNA expression,[7]; 20 mg/kg,16.17 ± 2.75 fold increase
same,iNOS mRNA expression,[7]; 40 mg/kg,12.20 ± 1.53 fold increase
same,iNOS mRNA expression,[7]; 100 mg/kg,22.88 ± 2.14 fold increase
same,IL-12 mRNA expression,[8]; 20 mg/kg,1.09 ± 0.13 fold increase
same,IL-12 mRNA expression,[8]; 40 mg/kg,1.81 ± 0.48 fold increase
same,IL-12 mRNA expression,[8]; 100 mg/kg,1.62 ± 0.37 fold increase
same,ICAM-1 mRNA expression,[9]; 20 mg/kg,1.39 ± 0.19 fold increase
same,ICAM-1 mRNA expression,[9]; 40 mg/kg,2.27 ± 0.38 fold increase
same,ICAM-1 mRNA expression,[9]; 100 mg/kg,2.39 ± 0.50 fold increase
same,Damage Score (0-10),[10]; 20 mg/kg,6.6 ± 0.6
same,Damage Score (0-10),[10]; 40 mg/kg,6.1 ± 0.4
same,Damage Score (0-10),[10]; 100 mg/kg,6.0 ± 0.5
same,Weight/length,[10]; 20 mg/kg,185.4 ± 31.1 mg/cm
same,Weight/length,[10]; 40 mg/kg,172.0 ± 15.8 mg/cm
same,Weight/length,[10]; 100 mg/kg,186.4 ± 13.2 mg/cm
same,effect in TNBS-induced colitis (in words),"[10]; rats, 20, 40 and 100 mg/kg body weight, 7 days oral treatment",intestinal anti-inflammatory effects
same,TFF-3 mRNA expression,[11]; 20 mg/kg,0.59 ± 0.16 fold increase
same,TFF-3 mRNA expression,[11]; 40 mg/kg,1.01 ± 0.05 fold increase
same,TFF-3 mRNA expression,[11]; 100 mg/kg,0.96 ± 0.11 fold increase
same,MUC-2 mRNA expression,[12]; 20 mg/kg,0.39 ± 0.09 fold increase
same,MUC-2 mRNA expression,[12]; 40 mg/kg,0.70 ± 0.08 fold increase
same,MUC-2 mRNA expression,[12]; 100 mg/kg,0.50 ± 0.11 fold increase
same,IL-23 mRNA expression,[13]; 20 mg/kg,1.68 ± 0.39 fold increase
same,IL-23 mRNA expression,[13]; 40 mg/kg,1.56 ± 0.27 fold increase
same,IL-23 mRNA expression,[13]; 100 mg/kg,1.80 ± 0.21 fold increase
same,IL-6 mRNA expression,[14]; 20 mg/kg,5.60 ± 1.41 fold increase
same,IL-6 mRNA expression,[14]; 40 mg/kg,5.60 ± 1.20 fold increase
same,IL-6 mRNA expression,[14]; 100 mg/kg,6.00 ± 1.01 fold increase
same,MCP-1 mRNA expression,[15]; 20 mg/kg,1.23 ± 0.37 fold increase
same,MCP-1 mRNA expression,[15]; 40 mg/kg,1.85 ± 0.29 fold increase
same,MCP-1 mRNA expression,[15]; 100 mg/kg,2.21 ± 0.29 fold increase
same,CINC-1 mRNA expression,[16]; 20 mg/kg,4.40 ± 0.65 fold increase
same,CINC-1 mRNA expression,[16]; 40 mg/kg,4.40 ± 0.57 fold increase
same,CINC-1 mRNA expression,[16]; 100 mg/kg,4.40 ± 0.90 fold increase
same,GSH,[17]; 20 mg/kg,560 ± 74 nmol/g tissue
same,GSH,[17]; 40 mg/kg,715 ± 88 nmol/g tissue
same,GSH,[17]; 100 mg/kg,870 ± 124 nmol/g tissue
same,IL-1β mRNA expression,[18]; 20 mg/kg,6.90 ± 1.50 fold increase
same,IL-1β mRNA expression,[18]; 40 mg/kg,7.20 ± 1.20 fold increase
same,IL-1β mRNA expression,[18]; 100 mg/kg,10.21 ± 1.50 fold increase
same,IL-17 mRNA expression,[19]; 20 mg/kg,1.17 ± 0.27 fold increase
same,IL-17 mRNA expression,[19]; 40 mg/kg,1.74 ± 0.33 fold increase
same,IL-17 mRNA expression,[19]; 100 mg/kg,2.34 ± 0.30 fold increase
same,IL-1β (ELISA),[20]; 20 mg/kg,975.0 ± 90.1 ng/g tissue
same,IL-1β (ELISA),[20]; 40 mg/kg,1140.0 ± 150.1 ng/g tissue
same,IL-1β (ELISA),[20]; 100 mg/kg,975.0 ± 211.7 ng/g tissue

# Source: patent US20170087106A1, “Method for supporting gut health” (priority 2015, published 2017)
